Measurements: US8871801B2, “Method of treating acquired perforating dermatosis with cantharidin” (priority 2011, dated 2014)

Legend:
[1] = tested on: acquired perforating dermatosis lesions; assay: Topical cantharidin treatment of a patient with acquired perforating dermatosis (case example); assay type: in vivo, human
Excerpt: A person presented a six-month history of pruritic, hyperpigmented papules with central, hyperkeratotic plugs of bilateral lower extremities (FIG. 1). The trunk, head, upper extremities, volar surfaces and mucous membranes were spared. Their past medical history was significant for chronic renal failure treated for the past four years with peritoneal dialysis, a 30-year history of insulin-dependent diabetes mellitus, hypercholesterolemia, hypertension, coronary artery bypass, hypothyroidism, and hyperparathyroidism. There was no family history of similar skin lesions. […] The clinical and histopathologic features supported the diagnosis of an acquired perforating disorder associated with renal disease.
Over the next six months, the patient was treated with intralesional triamcinolone at 10 mg/cc, topical clobetasol, diflorasone, tacrolimus, tazarotene and ammonium lactate. They declined narrowband UVB phototherapy. They were also given oral hydroxine and fexofenadine for their pruritus.
While a therapy of fexofenadine […] bid, ammonium lactate 12% cream bid, and tazarotene 0.1% cream qd were continued, cantharidin at 0.7 wt % (Canthacur® Pharmascience Inc., Montreal, Canada) was applied to lesions on the right medial calf. Cantharidin was applied for eight hours under occlusion. The vehicle was a solution containing cantharidin 0.7 wt % in acetone, castor oil, collodion, ethoxyethanol, ethyl cellulose, and polyoxyethylene octyl phenol. “bid” means twice per day. “qd” means once per day.
The film was then occluded using Blenderm® tape, which was kept on for 8 hours before it was washed off. Within 2 days, multiple bullae formed at the sites of cantharidin application (FIG. 2). There was vesicle formation at site of cantharidin application. The patient reported mild pain at these sites for the first 2 days. A week after application, a biopsy of the blistered lesion was taken. […] The blister roofs were then removed by paring them with a 15-blade at the edge of the lesion to find the blister plane and then lifting upwards. […] The lichenified papules and hyperkeratotic cores were no longer present and the leg was smooth.
Pruritus was resolved in the treated lesions. Cantharidin was subsequently applied under Tegaderm® dressing (3M Corp.) occlusion to multiple lesions of both legs. […] In a five-month follow up, the patient reported no pruritus on the treated lesions. Treated lesions were smooth. […] Cantharidin provides symptomatic relief but may not prevent the formation of new lesions.

skin = settings: general statement in the description; cited from earlier work

C[C@@]12C(=O)OC(=O)[C@]1(C)[C@H]1CC[C@@H]2O1 [cantharidin, Cantharidin]
biopsy of the blistered lesion (histology) ([1]; a week after application of cantharidin 0.7 wt %): focal acantholysis and scattered necrotic keratinocytes
pruritus in the treated lesions ([1]; after cantharidin 0.7 wt % treatment and debridement): resolved
time to formation of multiple bullae at the sites of cantharidin application ([1]; cantharidin 0.7 wt % solution, lesions on right medial calf, 8 hours under occlusion (Blenderm tape)): ≤ 2 days
pain reported by the patient at application sites ([1]; cantharidin 0.7 wt %, 8 hours under occlusion, first 2 days): mild pain
effectiveness of treatment on multiple lesions of both legs ([1]; cantharidin applied under Tegaderm dressing occlusion): effective in most lesions
appearance of treated lesions at follow up ([1]; five-month follow up): smooth
formation of new lesions at follow up ([1]; five-month follow up): A few new lesions formed
pruritus on the treated lesions at follow up ([1]; five-month follow up): no pruritus
time to blister formation after topical treatment (skin): 24 to 48 h
